The target of one assay is T1, B2 bradykinin receptor (Homo sapiens, UniProt P30411).
T1 sequence (P30411 whole entry): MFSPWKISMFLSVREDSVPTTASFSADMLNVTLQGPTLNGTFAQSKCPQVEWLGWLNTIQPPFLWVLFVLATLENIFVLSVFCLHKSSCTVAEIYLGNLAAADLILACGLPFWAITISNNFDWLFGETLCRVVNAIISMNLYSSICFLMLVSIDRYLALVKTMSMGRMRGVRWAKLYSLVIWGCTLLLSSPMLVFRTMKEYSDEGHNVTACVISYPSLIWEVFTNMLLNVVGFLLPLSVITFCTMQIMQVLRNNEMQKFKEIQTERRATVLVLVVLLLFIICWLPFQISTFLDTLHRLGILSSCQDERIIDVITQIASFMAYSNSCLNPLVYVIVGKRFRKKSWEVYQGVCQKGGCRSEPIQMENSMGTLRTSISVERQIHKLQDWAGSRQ

In assay [1] the target is T2, 5-hydroxytryptamine receptor 2B (Homo sapiens, UniProt P41595). It counts as functional, cell-based.
T2 sequence (P41595 whole entry): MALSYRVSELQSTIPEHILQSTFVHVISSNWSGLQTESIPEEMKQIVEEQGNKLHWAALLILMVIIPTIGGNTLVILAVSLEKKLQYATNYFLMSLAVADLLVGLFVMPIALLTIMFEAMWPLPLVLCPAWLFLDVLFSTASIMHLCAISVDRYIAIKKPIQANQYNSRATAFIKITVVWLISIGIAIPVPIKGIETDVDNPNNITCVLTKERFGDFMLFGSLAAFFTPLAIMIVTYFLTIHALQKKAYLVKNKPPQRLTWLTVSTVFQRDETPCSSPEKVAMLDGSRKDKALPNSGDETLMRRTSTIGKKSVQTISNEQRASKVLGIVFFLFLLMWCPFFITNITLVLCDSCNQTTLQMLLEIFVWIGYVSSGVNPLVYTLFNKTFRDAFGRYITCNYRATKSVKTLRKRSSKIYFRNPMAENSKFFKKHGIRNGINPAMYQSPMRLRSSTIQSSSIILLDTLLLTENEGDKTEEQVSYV
Assay [2] addresses Neuronal acetylcholine receptor subunit alpha-4 (Homo sapiens, UniProt P43681).
The target in the next assay is T3, Adenosine receptor A3 (Homo sapiens, UniProt P0DMS8).
T3 sequence (P0DMS8 whole entry): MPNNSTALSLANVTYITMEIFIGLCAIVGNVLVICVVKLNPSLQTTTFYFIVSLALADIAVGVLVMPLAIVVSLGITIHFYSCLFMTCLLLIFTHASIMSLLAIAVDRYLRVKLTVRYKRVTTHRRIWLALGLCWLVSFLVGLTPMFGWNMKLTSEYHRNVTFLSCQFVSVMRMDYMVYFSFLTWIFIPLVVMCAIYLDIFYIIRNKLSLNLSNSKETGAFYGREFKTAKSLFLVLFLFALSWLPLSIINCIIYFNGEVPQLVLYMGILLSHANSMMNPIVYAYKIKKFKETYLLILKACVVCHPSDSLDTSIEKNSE

Assay [3] concerns the target T4, Muscarinic acetylcholine receptor M1 (Homo sapiens, UniProt P11229).
T4 sequence (P11229 whole entry): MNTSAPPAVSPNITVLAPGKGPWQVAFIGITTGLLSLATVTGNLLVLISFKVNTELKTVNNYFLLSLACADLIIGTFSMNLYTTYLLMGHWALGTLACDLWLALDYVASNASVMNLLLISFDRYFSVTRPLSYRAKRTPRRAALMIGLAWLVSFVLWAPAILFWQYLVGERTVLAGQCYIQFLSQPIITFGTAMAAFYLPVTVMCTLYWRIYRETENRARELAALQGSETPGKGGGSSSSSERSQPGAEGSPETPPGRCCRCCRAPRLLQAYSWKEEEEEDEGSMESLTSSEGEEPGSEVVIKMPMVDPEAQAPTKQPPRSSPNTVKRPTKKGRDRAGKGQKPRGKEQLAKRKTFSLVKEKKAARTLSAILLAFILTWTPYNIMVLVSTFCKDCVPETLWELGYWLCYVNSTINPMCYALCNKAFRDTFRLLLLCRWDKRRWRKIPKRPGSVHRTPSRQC
It counts as functional.

Assay [4] has as its target Growth hormone secretagogue receptor type 1 (Homo sapiens, UniProt Q92847).
Assay [5] deals with 5-hydroxytryptamine receptor 2A (Homo sapiens, UniProt P28223). It counts as functional, cell-based.
Sequence of 5-hydroxytryptamine receptor 2A (P28223 whole entry): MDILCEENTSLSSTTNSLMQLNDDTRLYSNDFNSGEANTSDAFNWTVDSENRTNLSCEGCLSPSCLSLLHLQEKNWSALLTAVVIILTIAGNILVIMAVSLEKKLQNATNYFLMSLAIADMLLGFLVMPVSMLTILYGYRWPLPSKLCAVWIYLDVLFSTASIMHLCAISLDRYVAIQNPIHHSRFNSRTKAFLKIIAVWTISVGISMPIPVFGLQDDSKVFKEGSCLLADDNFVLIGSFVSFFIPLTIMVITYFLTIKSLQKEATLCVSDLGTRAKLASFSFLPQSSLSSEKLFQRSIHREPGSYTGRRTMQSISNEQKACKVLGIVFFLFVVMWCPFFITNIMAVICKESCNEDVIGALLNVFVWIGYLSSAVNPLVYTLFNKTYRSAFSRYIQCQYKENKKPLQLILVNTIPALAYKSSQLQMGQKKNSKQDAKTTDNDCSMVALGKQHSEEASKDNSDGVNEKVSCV
A further assay deals with T5, Endothelin-1 receptor (Homo sapiens, UniProt P25101).
T5 sequence (P25101 whole entry): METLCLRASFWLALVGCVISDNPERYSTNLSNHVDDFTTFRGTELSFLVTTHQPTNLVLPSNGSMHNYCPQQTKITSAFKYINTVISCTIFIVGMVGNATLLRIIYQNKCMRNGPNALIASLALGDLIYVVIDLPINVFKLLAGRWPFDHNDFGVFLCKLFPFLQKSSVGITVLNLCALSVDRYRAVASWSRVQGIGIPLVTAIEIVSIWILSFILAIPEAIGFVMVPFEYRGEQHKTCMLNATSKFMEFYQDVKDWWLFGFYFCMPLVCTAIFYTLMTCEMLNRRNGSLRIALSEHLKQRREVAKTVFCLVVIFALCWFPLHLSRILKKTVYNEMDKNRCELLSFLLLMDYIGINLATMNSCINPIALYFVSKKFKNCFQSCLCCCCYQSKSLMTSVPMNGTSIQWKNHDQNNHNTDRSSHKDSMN

Assay [6] has as its target Muscarinic acetylcholine receptor M3 (Homo sapiens, UniProt P20309).
Assay [7] concerns the target cGMP-inhibited 3',5'-cyclic phosphodiesterase 3A (Homo sapiens, UniProt Q14432). It counts as functional.
Assay [8] deals with Beta-2 adrenergic receptor (Homo sapiens, UniProt P07550).
For assay [9], the target named is T6, Muscarinic acetylcholine receptor M2 (Homo sapiens, UniProt P08172).
T6 sequence (P08172 whole entry): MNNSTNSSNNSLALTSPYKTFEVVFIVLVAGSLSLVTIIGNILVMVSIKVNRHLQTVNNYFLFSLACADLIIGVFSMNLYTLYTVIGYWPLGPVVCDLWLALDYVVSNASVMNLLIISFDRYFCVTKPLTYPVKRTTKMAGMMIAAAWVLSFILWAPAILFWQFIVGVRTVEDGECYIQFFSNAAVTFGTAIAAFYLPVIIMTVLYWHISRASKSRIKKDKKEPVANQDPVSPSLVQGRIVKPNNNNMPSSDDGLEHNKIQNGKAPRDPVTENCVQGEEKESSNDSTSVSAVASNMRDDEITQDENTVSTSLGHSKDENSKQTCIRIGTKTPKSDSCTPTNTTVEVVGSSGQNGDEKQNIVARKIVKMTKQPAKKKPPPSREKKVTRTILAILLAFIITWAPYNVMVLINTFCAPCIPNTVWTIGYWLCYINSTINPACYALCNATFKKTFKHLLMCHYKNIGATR
It counts as functional, cell-based.

Assay [10] has as its target T2, 5-hydroxytryptamine receptor 2B. It counts as functional, cell-based. This is another data set of the same source.

Usually AC50 stands for the midpoint of the concentration-response curve, whichever way the signal moves. Lower therefore signals greater potency.
Also: assay procedure not described here.

Sequence of Neuronal acetylcholine receptor subunit alpha-4 (P43681 whole entry): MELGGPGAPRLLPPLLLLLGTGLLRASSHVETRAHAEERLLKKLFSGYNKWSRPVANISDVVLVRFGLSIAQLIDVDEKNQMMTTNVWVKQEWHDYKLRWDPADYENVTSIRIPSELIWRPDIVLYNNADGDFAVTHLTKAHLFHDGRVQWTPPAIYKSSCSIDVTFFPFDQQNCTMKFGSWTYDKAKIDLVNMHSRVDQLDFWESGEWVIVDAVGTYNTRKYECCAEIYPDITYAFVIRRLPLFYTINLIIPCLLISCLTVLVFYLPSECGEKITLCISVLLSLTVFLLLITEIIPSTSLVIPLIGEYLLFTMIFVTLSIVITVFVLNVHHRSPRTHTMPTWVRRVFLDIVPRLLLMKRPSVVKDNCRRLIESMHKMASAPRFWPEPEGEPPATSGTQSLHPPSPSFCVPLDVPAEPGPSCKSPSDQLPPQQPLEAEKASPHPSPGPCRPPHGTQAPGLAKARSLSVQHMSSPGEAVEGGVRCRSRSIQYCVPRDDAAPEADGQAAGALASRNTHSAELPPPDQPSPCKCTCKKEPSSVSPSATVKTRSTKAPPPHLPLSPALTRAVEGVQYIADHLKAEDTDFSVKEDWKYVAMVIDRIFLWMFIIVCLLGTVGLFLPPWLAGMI
Sequence of Muscarinic acetylcholine receptor M3 (P20309 whole entry): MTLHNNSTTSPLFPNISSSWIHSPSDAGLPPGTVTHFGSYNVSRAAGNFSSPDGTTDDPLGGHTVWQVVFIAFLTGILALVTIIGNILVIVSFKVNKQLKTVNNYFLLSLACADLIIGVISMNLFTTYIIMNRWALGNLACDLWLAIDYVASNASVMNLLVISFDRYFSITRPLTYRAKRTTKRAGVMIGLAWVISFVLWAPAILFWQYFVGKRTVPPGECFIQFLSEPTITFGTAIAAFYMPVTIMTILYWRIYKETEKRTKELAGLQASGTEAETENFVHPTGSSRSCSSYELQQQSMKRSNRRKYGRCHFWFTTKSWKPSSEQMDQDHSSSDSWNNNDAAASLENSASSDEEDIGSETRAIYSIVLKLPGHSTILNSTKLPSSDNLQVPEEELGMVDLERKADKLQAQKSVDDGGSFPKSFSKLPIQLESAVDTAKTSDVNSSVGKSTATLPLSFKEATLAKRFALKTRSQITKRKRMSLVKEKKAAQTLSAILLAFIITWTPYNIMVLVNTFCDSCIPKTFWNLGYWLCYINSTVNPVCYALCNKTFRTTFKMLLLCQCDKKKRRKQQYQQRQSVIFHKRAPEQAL
Sequence of Growth hormone secretagogue receptor type 1 (Q92847 whole entry): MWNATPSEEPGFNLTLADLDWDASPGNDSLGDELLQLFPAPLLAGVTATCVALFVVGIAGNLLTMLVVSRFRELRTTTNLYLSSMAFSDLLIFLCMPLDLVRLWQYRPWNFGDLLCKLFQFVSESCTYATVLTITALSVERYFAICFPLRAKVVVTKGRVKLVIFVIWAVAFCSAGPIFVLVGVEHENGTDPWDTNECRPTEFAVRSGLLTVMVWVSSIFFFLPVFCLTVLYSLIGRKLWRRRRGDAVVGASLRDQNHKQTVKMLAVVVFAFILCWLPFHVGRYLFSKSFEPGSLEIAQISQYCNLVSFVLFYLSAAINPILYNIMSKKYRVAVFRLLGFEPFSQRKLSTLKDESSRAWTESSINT
Sequence of cGMP-inhibited 3',5'-cyclic phosphodiesterase 3A (Q14432 whole entry): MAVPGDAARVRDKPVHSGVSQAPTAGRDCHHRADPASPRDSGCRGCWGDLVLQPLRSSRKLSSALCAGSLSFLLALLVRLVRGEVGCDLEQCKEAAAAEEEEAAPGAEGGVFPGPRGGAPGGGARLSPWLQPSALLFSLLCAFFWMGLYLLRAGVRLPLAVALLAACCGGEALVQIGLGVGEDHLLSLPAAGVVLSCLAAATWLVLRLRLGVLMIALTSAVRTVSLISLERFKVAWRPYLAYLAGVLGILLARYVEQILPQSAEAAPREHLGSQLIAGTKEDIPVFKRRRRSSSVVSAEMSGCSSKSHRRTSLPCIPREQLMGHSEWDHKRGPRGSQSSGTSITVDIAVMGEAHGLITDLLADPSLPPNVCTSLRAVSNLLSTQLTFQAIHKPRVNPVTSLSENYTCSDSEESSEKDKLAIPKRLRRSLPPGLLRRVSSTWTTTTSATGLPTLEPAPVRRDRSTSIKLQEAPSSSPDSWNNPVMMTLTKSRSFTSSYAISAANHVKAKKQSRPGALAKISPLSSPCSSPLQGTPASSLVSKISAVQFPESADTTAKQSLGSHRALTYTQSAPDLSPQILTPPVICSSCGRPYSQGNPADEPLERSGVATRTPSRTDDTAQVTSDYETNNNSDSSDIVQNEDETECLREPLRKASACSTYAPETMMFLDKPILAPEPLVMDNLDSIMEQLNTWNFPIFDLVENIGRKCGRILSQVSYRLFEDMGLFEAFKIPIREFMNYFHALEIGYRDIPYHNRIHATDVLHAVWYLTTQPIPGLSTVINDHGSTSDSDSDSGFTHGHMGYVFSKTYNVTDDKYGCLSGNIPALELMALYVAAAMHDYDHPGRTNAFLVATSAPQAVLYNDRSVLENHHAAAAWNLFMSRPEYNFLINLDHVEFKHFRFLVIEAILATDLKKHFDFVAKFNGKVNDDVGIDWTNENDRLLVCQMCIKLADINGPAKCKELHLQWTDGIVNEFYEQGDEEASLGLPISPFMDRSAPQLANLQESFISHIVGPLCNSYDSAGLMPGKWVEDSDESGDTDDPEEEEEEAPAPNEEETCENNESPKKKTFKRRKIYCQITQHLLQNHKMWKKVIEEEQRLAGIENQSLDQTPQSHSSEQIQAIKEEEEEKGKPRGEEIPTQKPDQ

Turning to SITOSTEROLS, the AC50 (at B2 bradykinin receptor; in assay [1]; in assay [2]; on Adenosine receptor A3; in [3]; in [4]) was more than 30 µM each time. The AC50 in assay [5] is more than 30 µM; at Endothelin-1 receptor, more than 30 µM; in [6], more than 30 µM; in assay [7], more than 10 µM; in [8] it was more than 30 µM; in assay [9], more than 30 µM. Further, the half-maximal activity concentration (AC50) in assay [10] is more than 30 µM.
